Here are results for 26 compounds from US12552826B2, “PRMT5 inhibitors” (Merck Sharp & Dohme LLC, priority 2018, dated 2026).

T1 sequence (O14744 whole entry): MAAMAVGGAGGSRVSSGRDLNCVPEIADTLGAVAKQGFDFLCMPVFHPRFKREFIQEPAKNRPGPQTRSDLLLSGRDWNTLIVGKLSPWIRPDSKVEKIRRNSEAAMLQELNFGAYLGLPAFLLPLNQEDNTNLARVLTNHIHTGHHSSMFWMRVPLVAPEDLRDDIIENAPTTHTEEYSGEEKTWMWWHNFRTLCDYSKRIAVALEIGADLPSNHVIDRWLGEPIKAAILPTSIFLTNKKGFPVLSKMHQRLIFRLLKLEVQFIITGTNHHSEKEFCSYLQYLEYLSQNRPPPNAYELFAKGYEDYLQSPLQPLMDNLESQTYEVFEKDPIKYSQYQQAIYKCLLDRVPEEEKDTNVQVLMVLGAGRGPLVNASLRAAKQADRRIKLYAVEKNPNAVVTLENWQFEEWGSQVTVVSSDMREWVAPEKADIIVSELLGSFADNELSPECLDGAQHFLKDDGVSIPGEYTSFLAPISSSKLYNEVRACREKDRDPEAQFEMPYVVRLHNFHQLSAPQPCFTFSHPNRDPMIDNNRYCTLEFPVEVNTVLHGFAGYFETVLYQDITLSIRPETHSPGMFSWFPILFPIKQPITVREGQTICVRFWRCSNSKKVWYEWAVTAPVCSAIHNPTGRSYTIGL
T1 sequence (Q9BQA1 whole entry partner): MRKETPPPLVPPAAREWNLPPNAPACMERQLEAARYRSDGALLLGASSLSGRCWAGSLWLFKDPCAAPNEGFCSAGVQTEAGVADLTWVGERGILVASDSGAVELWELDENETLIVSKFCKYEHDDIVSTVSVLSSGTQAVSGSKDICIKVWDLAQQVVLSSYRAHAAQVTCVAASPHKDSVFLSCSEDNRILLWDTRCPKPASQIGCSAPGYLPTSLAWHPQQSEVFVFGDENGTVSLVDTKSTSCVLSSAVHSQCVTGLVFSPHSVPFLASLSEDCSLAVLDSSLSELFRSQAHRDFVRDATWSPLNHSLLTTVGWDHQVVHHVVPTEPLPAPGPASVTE

This test has as its target T1, PRMT5 (Homo sapiens, UniProt O14744).
T1 construct: endogenous in cells; host or cells: MCF-7
The test can be described thus: PRMT5 Cell Target Engagement (TE) Assay. The note with it: MCF-7 cells, 3 days treatment, nuclear SDMA by high content imaging. It is filed as cell-based. The text has this:
The PRMT5 TE assay is a biomarker assay for identifying compounds that inhibit symmetric dimethylation of arginine (SDMA) of PRMT5 substrates. The following substrates have been reported for PRMT5: Histone H2A and H4 R3, Histone H3 R2, Histone H3 R8, spliceosome Sm proteins, ribosomal protein RPS10, p53, FEN1, nucleoplasmin, nucleolin, EGFR and EBNA. The assay will focus on detecting symmetrically dimethylated nuclear proteins using high content imaging technology. Detection of the expression of symmetrically dimethylated nuclear proteins is through a mixture of primary rabbit monoclonal antibodies to SDMA (CST 13222), which in turn recognized by an Alexafluor 488 dye-conjugated anti-rabbit IgG secondary antibody. The IN Cell Analyzer 2200 or Opera-Phenix measures nuclear Alexafluor 488 fluorescent dye intensity that is directly related to the level of expression of symmetrically dimethylated nuclear proteins at the single cell level. Nuclear AF488 dye intensities are compared to the mean value for DMSO treated cells (MIN) to report percent of inhibition for each compound-treated well.
In this assay, the cell potency (EC50) of each compound was determined from a ten point (1:3 serial dilution; top compound concentration of 10000 nM) titration curve using the following outlined procedure. Each well of a BD falcon collagen coated black/clear bottom 384-well plate was seeded with 4000 MCF-7 cells in 30 μl media and allowed to attach for 5 hours. Media is ATCC-formulated Eagle's Minimum Essential Medium, Catalog No. 30-2003. The following components were added to the base medium: 0.01 mg/mL human recombinant insulin; fetal bovine serum to a final concentration of 10%. Additional 30 μl of media containing 2× compounds were added to each well. Cells were treated for 3 days in 37° C. CO2 incubator. On day 3, cells were fixed with Cytofix, permeabilized with 0.4% Triton-X-100/Cytofix, and washed with D-PBS without Ca/Mg. Cells were blocked with Licor Odessey blocking reagent for 1 hour at room temperature, followed by incubation with anti-SDMA (1:1000) antibody at 4° C. overnight. 1° antibody was removed, followed by three washings with DPBS without Ca/Mg and 0.05% Tween20. Hoechst (5 μg/mL), Cell Mask deep stain (1:2000) and Alexa488-conjugated goat anti-rabbit IgG (2 μg/mL) was added for 1 hour at room temperature. A final washing step (three washes) was performed before sealing plate for imaging on In Cell Analyzer 2200 or Opera-Phenix. Images from analyzer were uploaded to Columbus for image analysis. IC50 values were determined by 4 parameters robust fit of percent fluorescence units vs. (Log10) compound concentrations.
`Cc1ncnc2c1ccn2[C@@H]1O[C@H]([C@H](O)c2cc(C(F)F)c(F)c3c2CNCC3)[C@@](C)(O)[C@H]1O` (single isomer, unassigned) [Example 89] returned a 50% effective concentration (EC50) of 76 nM. `C[C@@]1(O)[C@@H]([C@H](O)c2ccc(F)c(F)c2)O[C@@H](n2ccc3c(N)ncnc32)[C@@H]1O` [Example 1, (2R,3S,4R,5R)-5-(4-amino-7H-pyrrolo[2,3-d]pyrimidin-7-yl)-2-((R)-(3,4-difluorophenyl)(hydroxy)methyl)-3-methyltetrahydrofuran-3,4-diol]: the EC50 was determined as 187 nM.

In the case of `C[C@]1(O)[C@@H](O)[C@H](n2ccc3c(N)ncnc32)O[C@@H]1[C@](C)(O)c1ccc(F)c(F)c1` [Example 3, (2R,3S,4R,5R)-5-(4-amino-7H-pyrrolo[2,3-d]pyrimidin-7-yl)-2-((R)-1-(3,4-difluorophenyl)-1-hydroxyethyl)-3-methyltetrahydrofuran-3,4-diol], the response was half-maximal at 145 nM (EC50). `C[C@@]1(O)[C@@H]([C@H](O)c2cccc(Cl)c2)O[C@@H](n2ccc3c(N)ncnc32)[C@@H]1O` [Example 16, 7-[(5R)-5-C-(3-chlorophenyl)-3-C-methyl-beta-D-ribofuranosyl]-7H-pyrrolo[2,3-d]pyrimidin-4-amine]: it took 80 nM to reach a half-maximal effect (EC50).

Compound `C[C@]1(O)[C@@H](O)[C@H](n2ccc3c(N)ncnc32)O[C@@H]1[C@](C)(O)c1cc(C(F)F)ccn1` [Example 76, 7-{6-deoxy-5-C-[4-(difluoromethyl)pyridin-2-yl]-3-C-methyl-alpha-L-talofuranosyl}-7H-pyrrolo[2,3-d]pyrimidin-4-amine] came in with a half-maximal effective concentration (EC50) of 1200 nM. In turn, `C[C@@]1(O)[C@@H]([C@@H](O)c2ccc(F)c(C(F)F)c2F)O[C@@H](n2ccc3c(N)ncnc32)[C@@H]1O` [Example 68, 7-{(5S)-5-C-[3-(difluoromethyl)-2,4-difluorophenyl]-3-C-methyl-beta-D-ribofuranosyl}-7H-pyrrolo[2,3-d]pyrimidin-4-amine] gave an EC50 of more than 10000 nM. Compound `C[C@H](c1cc(F)cc(C(F)F)c1)[C@H]1O[C@@H](n2ccc3c(N)ncnc32)[C@H](O)[C@]1(C)O` (single isomer, unassigned) [Example 83] had an EC50 of 120 nM. For `C[C@@]1(O)[C@@H]([C@H](O)c2ccc(F)cc2)O[C@@H](n2ccc3c(N)ncnc32)[C@@H]1O` [Example 24, 7-[(5R)-5-C-(4-fluorophenyl)-3-C-methyl-beta-D-ribofuranosyl]-7H-pyrrolo[2,3-d]pyrimidin-4-amine], the EC50 is 474 nM.

`C[C@@]1(O)[C@@H]([C@H](O)c2cc(F)cc(F)c2)O[C@@H](n2ccc3c(N)ncnc32)[C@@H]1O` [Example 22, 7-[(5R)-5-C-(3,5-difluorophenyl)-3-C-methyl-beta-D-ribofuranosyl]-7H-pyrrolo[2,3-d]pyrimidin-4-amine] gave an EC50 of 59 nM.

Consider `C[C@@]1(O)[C@@H]([C@@H](O)c2cc(F)c(F)c(C(F)F)c2)O[C@@H](n2ccc3c(N)ncnc32)[C@@H]1O` [Example 65, 7-{(5S)-5-C-[3-(difluoromethyl)-4,5-difluorophenyl]-3-C-methyl-beta-D-ribofuranosyl}-7H-pyrrolo[2,3-d]pyrimidin-4-amine], for which the half-maximal effective concentration (EC50) is more than 10000 nM. The compound `C[C@@]1(O)[C@@H]([C@H](O)c2cc(Cl)cc(Cl)c2)O[C@@H](n2ccc3c(N)ncnc32)[C@@H]1O` [Example 18, 7-[(5R)-5-C-(3,5-dichlorophenyl)-3-C-methyl-beta-D-ribofuranosyl]-7H-pyrrolo[2,3-d]pyrimidin-4-amine] registered an EC50 of 14 nM.

`C[C@@]1(O)[C@@H]([C@@H](O)c2ccnc(C(F)F)c2)O[C@@H](n2ccc3c(N)ncnc32)[C@@H]1O` [Example 79, 7-{(5S)-5-C-[2-(difluoromethyl)pyridin-4-yl]-3-C-methyl-beta-D-ribofuranosyl}-7H-pyrrolo[2,3-d]pyrimidin-4-amine] returned an EC50 of more than 10000 nM. In turn, `C[C@@]1(O)[C@@H]([C@H](O)c2cc(F)cc(Cl)c2)O[C@@H](n2ccc3c(N)ncnc32)[C@@H]1O` [Example 26, 7-[(5R)-5-C-(3-chloro-5-fluorophenyl)-3-C-methyl-beta-D-ribofuranosyl]-7H-pyrrolo[2,3-d]pyrimidin-4-amine] had a concentration giving a half-maximal response (EC50) of 34 nM. With `C[C@@]1(O)[C@@H]([C@@H](O)c2cccc(Cl)c2F)O[C@@H](n2ccc3c(N)ncnc32)[C@@H]1O` [Example 47, 7-[(5S)-5-C-(3-chloro-2-fluorophenyl)-3-C-methyl-beta-D-ribofuranosyl]-7H-pyrrolo[2,3-d]pyrimidin-4-amine] the figure was more than 10000 nM. Under `Cc1ncnc2c1ccn2[C@@H]1O[C@H]([C@@H](C)c2cc(C(F)F)c(F)c3c2CNCC3)[C@@](C)(O)[C@H]1O` (single isomer, unassigned) [Example 93] stands 1.4 nM; under `C[C@]1(O)[C@@H](O)[C@H](n2ccc3c(N)ncnc32)O[C@@H]1[C@](C)(O)c1cc(F)cc(C(F)F)c1` [Example 66, 7-{6-deoxy-5-C-[3-(difluoromethyl)-5-fluorophenyl]-3-C-methyl-alpha-L-talofuranosyl}-7H-pyrrolo[2,3-d]pyrimidin-4-amine], 4 nM; under `C=C(c1cc(F)cc(C(F)F)c1)[C@H]1O[C@@H](n2ccc3c(N)ncnc32)[C@H](O)[C@]1(C)O` [Example 82, (2R,3S,4R,5R)-5-(4-amino-7H-pyrrolo[2,3-d]pyrimidin-7-yl)-2-(1-(3-(difluoromethyl)-5-fluorophenyl)vinyl)-3-methyltetrahydrofuran-3,4-diol], 280 nM. `C[C@]1(O)[C@@H](O)[C@H](n2ccc3c(N)ncnc32)O[C@@H]1[C@@](C)(O)c1ccnc(C(F)F)c1` [Example 81, 7-{6-deoxy-5-C-[2-(difluoromethyl)pyridin-4-yl]-3-C-methyl-beta-D-allofuranosyl}-7H-pyrrolo[2,3-d]pyrimidin-4-amine] registered an EC50 of more than 10000 nM. In turn, `C[C@@]1(O)[C@@H]([C@H](O)c2ccc(F)c(C(F)F)c2F)O[C@@H](n2ccc3c(N)ncnc32)[C@@H]1O` [Example 67, 7-{(5R)-5-C-[3-(difluoromethyl)-2,4-difluorophenyl]-3-C-methyl-beta-D-ribofuranosyl}-7H-pyrrolo[2,3-d]pyrimidin-4-amine] yielded an EC50 of 435 nM. Turning to `Cc1ncnc2c1ccn2[C@@H]1O[C@H]([C@](C)(O)c2cccc3c2CNCC3)[C@@](C)(O)[C@H]1O` [Example 88, (2R,3S,4R,5R)-2-((R)-1-hydroxy-1-(1,2,3,4-tetrahydroisoquinolin-8-yl)ethyl)-3-methyl-5-(4-methyl-7H-pyrrolo[2,3-d]pyrimidin-7-yl)tetrahydrofuran-3,4-diol], a half-maximal effect (EC50) was put at 47 nM. `Cc1ncnc2c1ccn2[C@@H]1O[C@H]([C@H](C)c2cc(C(F)F)c(F)c3c2CNCC3)[C@@](C)(O)[C@H]1O` (single isomer, unassigned) [Example 92] displayed an EC50 of 278 nM. For `Cc1ccccc1[C@@H](O)[C@H]1O[C@@H](n2ccc3c(N)ncnc32)[C@H](O)[C@]1(C)O` [Example 40, 7-[(5R)-3-C-methyl-5-C-(2-methylphenyl)-beta-D-ribofuranosyl]-7H-pyrrolo[2,3-d]pyrimidin-4-amine], a half-maximal response (EC50) required 2270 nM. For the compound `C[C@@]1(O)[C@@H]([C@H](O)c2ccc(F)cc2Cl)O[C@@H](n2ccc3c(N)ncnc32)[C@@H]1O` [Example 48, 7-[(5R)-5-C-(2-chloro-4-fluorophenyl)-3-C-methyl-beta-D-ribofuranosyl]-7H-pyrrolo[2,3-d]pyrimidin-4-amine], the 50% effective concentration (EC50) was more than 10000 nM. `C[C@@]1(O)[C@@H]([C@H](O)c2ccc(F)c(F)c2F)O[C@@H](n2ccc3c(N)ncnc32)[C@@H]1O` [Example 50, 7-[(5R)-3-C-methyl-5-C-(2,3,4-trifluorophenyl)-beta-D-ribofuranosyl]-7H-pyrrolo[2,3-d]pyrimidin-4-amine] displayed a half-maximal effective concentration (EC50) of 3240 nM. The compound `Cc1ncnc2c1ccn2[C@@H]1O[C@H]([C@](C)(O)c2cc(C(F)F)c(F)c3c2CNCC3)[C@@](C)(O)[C@H]1O` [Example 91, (2R,3S,4R,5R)-2-((R)-1-(6-(difluoromethyl)-5-fluoro-1,2,3,4-tetrahydroisoquinolin-8-yl)-1-hydroxyethyl)-3-methyl-5-(4-methyl-7H-pyrrolo[2,3-d]pyrimidin-7-yl)tetrahydrofuran-3,4-diol] came in with an EC50 of 0.54 nM.

`Cc1cccc([C@@H](O)[C@H]2O[C@@H](n3ccc4c(N)ncnc43)[C@H](O)[C@]2(C)O)c1` [Example 38, 7-[(5R)-3-C-methyl-5-C-(3-methylphenyl)-beta-D-ribofuranosyl]-7H-pyrrolo[2,3-d]pyrimidin-4-amine] returned an EC50 of 166 nM.
